# Tests used:
# [1] = tested on: iPSC-fRPE cells; experiment: RPE cell proliferation (Hoechst 33342 live cell number); format: cell-based, human; details: test compound 5 μM in 0.1% DMSO, fixed at Day 5, Hoechst 33342 cell number, relative to plate internal DMSO controls (control = 1); for fold induction at 5 µM: Homo sapiens, RPE, 120 h, read-out: Relative Growth
# Method: (§1) Induced pluripotent stem cell-derived fetal RPE (iPSC-fRPE) cells acquired from the University of California, Santa Barbara, were generated from human fetal RPE cells that were isolated and reprogramed to iPSC, then differentiated and sorted for cellular markers to collect RPE progenitors. Vials were transported frozen on dry ice and stored in −80° C.
# (§2) For the phenotypic screens, iPSC-fRPE cells were thawed and cultured in Matrigel-coated flasks with N1VA media containing 1XMEM solution supplemented with 2.2 g/L Sodium Bicarbonate, 0.25 mg/ml Taurine, 0.02 ug/ml Hydrocortisone, 0.013 ug/ml Triiodo Thyronine, 0.1 ug/ml Lipoic acid, 1% MEM Non-Essential Amino Acids, 1% Penicilin/Streptomycin, 2% Neurocult SM1 supplement and 1% N1 supplement. For the initial cultures, Thiazovivin was added to the media at 2 μM for the first 24 hr of incubation, after which the media was replaced with fresh N1VA media for additional three-day incubation at 37° C. with 5% CO2.
# (§3) iPSC-fRPE cells were plated with N1VA media at a density of 10,000 cells per well in Matrigel-coated 96-well plates and cultured for 24 h prior to the treatment with test compounds at a final concentration of 5 μM in 0.1% DMSO. Internal controls for each test plate were (a) 0.1% DMSO as a negative control and (b) 0.1% DMSO+10 ng/ml human recombinant bFGF (STEMCELL) as a positive control.
# To assess proliferation of RPE cells, a replicate of compound-treated RPE cells were fixed at Day 5 and stained with Hoechst 33342 to determine live cell number with fluorescent microscopy. Cell numbers are reported relative to plate internal DMSO controls.
# [2] = tested on: iPSC-fRPE cells; experiment: RPE pigmentation screen (light absorbance at 510 nm); format: cell-based, human; details: test compound 5 μM in 0.1% DMSO, 32 days, relative to plate internal DMSO controls (control = 1); for fold induction at 5 µM: Homo sapiens, 768 h
# Method: as §1, §2, §3
# To identify compounds that promote RPE pigmentation, cells were maintained for a period of 32 days and treated with medium containing the test or control compounds according to the media exchange regimen (FIG. 1). The degree of pigmentation was quantified by measuring the light absorbance at 510 nm with Cytation5 imaging reader (BIOTEK). Pigmentation values are finally reported relative to plate internal DMSO controls.
Compound,Relative Growth [1],Relative Pigmentation [2],fold induction at 5 µM [1],fold induction at 5 µM [2]
2-(chroman-3-yl)-6-(oxazol-5-yl)benzo[d]oxazole [Compound 10],1.12,1.71,–,–
2-(chroman-3-yl)-6-(oxazol-5-yl)benzo[d]oxazole [Compound 11],1.42,6.24,–,–
"c1ccc2c(c1)CC(c1nc3ccc(-c4cnco4)cc3[nH]1)O2 (racemic) [Compound 3, 2-(2,3-dihydro-1-benzofuran-2-yl)-6-(1,3-oxazol-5-yl)-1H-1,3-benzodiazole]",–,–,1.36,2.77
"Fc1ccc2c(c1)OCC(c1nc3ccc(-c4cnco4)cc3[nH]1)C2 (racemic) [Compound 4, 2-(7-fluoro-3,4-dihydro-2H-1-benzopyran-3-yl)-6-(1,3-oxazol-5-yl)-1H-1,3-benzodiazole]",–,–,1.78,5.08
"Clc1ccc2c(c1)CC(c1nc3ccc(-c4cnco4)cc3[nH]1)CO2 (racemic) [Compound 5, 2-(6-chloro-3,4-dihydro-2H-1-benzopyran-3-yl)-6-(1,3-oxazol-5-yl)-1H-1,3-benzodiazole]",–,–,1.52,1.04
"Fc1cc(F)c2c(c1)CC(c1nc3ccc(-c4cnco4)cc3[nH]1)CO2 (racemic) [Compound 6, 2-(6,8-difluoro-3,4-dihydro-2H-1-benzopyran-3-yl)-6-(1,3-oxazol-5-yl)-1H-1,3-benzodiazole]",–,–,1.42,2.3
"Fc1cc(-c2cnco2)cc2[nH]c(C3COc4ccccc4C3)nc12 (racemic) [Compound 8, 2-(3,4-dihydro-2H-1-benzopyran-3-yl)-7-fluoro-5-(1,3-oxazool-5-yl)-1H-1,3-benzodiazole]",–,–,1.49,2.75
"Fc1c(-c2cnco2)ccc2nc(C3COc4ccccc4C3)[nH]c12 (racemic) [Compound 9, 2-(3,4-dihydro-2H-1-benzopyran-3-yl)-4-fluoro-5-(1,3-oxazol-5-yl)-1H-1,3-benzodiazole]",–,–,1.13,4.27
"c1ccc2c(c1)C[C@H](c1nc3ccc(-c4cnco4)cc3[nH]1)CO2 [Compound 1, (R)-5-(2-(chroman-3-yl)-1H-benzo[d]imidazol-6-yl)oxazole]",–,–,1.7,4.98
"c1ccc2c(c1)C[C@@H](c1nc3ccc(-c4cnco4)cc3[nH]1)CO2 [Compound 2, (S)-5-(2-(chroman-3-yl)-1H-benzo[d]imidazol-6-yl)oxazole]",–,–,1.25,1.59
"c1ccc2c(c1)CC(c1nc3ccc(-c4cnco4)cc3[nH]1)C2 [Compound 7, 2-(2,3-dihydro-1H-inden-2-yl)-6-(1,3-oxazolyl)-1H-1,3-benzodiazole]",–,–,1.34,2.36
